# Assay results reported in PubChem BioAssay (NCI).
# Where “and” joins values, the source holds several entries; their conditions need not be identical. Equal entries are not always repeated.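 48-hour exposure; five concentrations; linearly interpolated endpoints. Here, GI50 denotes the concentration required for 50% inhibition of growth. TGI: total growth inhibition.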
# Assays:
# Test in all cases: NCI-60 cell line screen, 48 h
# [1] = test system: ACHN renal
# [2] = test system: CAKI-1 renal
# [3] = test system: HOP-62 NSCLC
# [4] = test system: OVCAR-3 ovarian
# [5] = test system: MALME-3M melanoma
# [6] = test system: MOLT-4 leukemia
# [7] = test system: SN12C renal
# [8] = test system: RXF 393 renal
# [9] = test system: A498 renal
Compound,TGI [1],TGI [2],TGI [3],TGI [4],TGI [5],TGI [6],TGI [7],TGI [8],TGI [9],GI50 [4],GI50 [5],GI50 [9],GI50 [7],GI50 [2],GI50 [3],GI50 [6]
CCOC(=O)c1cc2c(cn1)[nH]c1cccc(N)c12,> 100 µM,> 100 µM,> 100 µM,> 100 µM,> 100 µM,> 100 µM,> 100 µM,> 100 µM,,,,,,,,
O=c1cc(-c2ccccc2)nc(/C=C(\O)c2ccncc2)n1-c1ccccc1,> 100 µM,> 100 µM,> 100 µM,> 100 µM,> 100 µM,,> 100 µM,> 100 µM,> 100 µM,,,,,,,
COC(=O)[C@@]1(O)CC(C)C=C1C=O (some centres not stated),> 100 µM,> 100 µM,> 100 µM,> 100 µM,> 100 µM,> 100 µM,> 100 µM,42.9 µM,> 100 µM,,,,,,,
CN(C(=O)C12C3(C(=O)C(C)(C)C)C4C5(C#N)C3C1(C(=O)C(C)(C)C)C5C42C(=O)C(C)(C)C)C(C)(C)C (configuration not stated),> 50 µM,> 50 µM,> 50 µM,> 50 µM,> 50 µM,> 50 µM,> 50 µM,,> 50 µM,,,,,,,
CCCCCCCCC(O)C#CC(N)=O (configuration not stated),31 µM,32.3 µM,,20.5 µM,31.8 µM,66.1 µM,23.8 µM,29.2 µM,31 µM,,,,,,,
Cc1ccc(-c2cc(=O)c3cc(C)c(C)c(C(=O)O)c3o2)cc1,> 100 µM,,> 100 µM,> 100 µM,> 100 µM,> 100 µM,> 100 µM,,> 100 µM,,,,,,,
C/C(CC(=O)Nc1ccc(Cl)cc1)=N\NC(=O)C[n+]1ccccc1,> 100 µM,,> 100 µM,> 100 µM,> 100 µM,> 100 µM,,> 100 µM,,,,,,,,
CC(C)(O)[C@@H]1CC[C@@]2(C)CCC[C@H](O)[C@H]2C1,> 100 µM,> 100 µM,> 100 µM,> 100 µM,> 100 µM,> 100 µM,> 100 µM,,> 100 µM,,,,,,,
O=C1C2CC=CCC2C(=O)C12CCc1ccccc12 (configuration not stated),> 100 µM,> 100 µM,> 100 µM,> 100 µM,> 100 µM,,> 100 µM,> 100 µM,,,,,,,,
CC(=O)OC(C)(C)/C=C/C(=O)[C@](C)(O)[C@H]1[C@H](O)C[C@@]2(C)[C@@H]3CC=C4[C@@H](C[C@H](O)C(=O)C4(C)C)[C@]3(CO)C(=O)C[C@]12C,0.882 µM and 0.844 µM,0.564 µM and 0.66 µM,0.528 µM and 0.482 µM,0.762 µM,0.936 µM and 4.69 µM,58.3 µM,17.4 µM,0.405 µM and 0.458 µM,0.431 µM and 0.213 µM,0.273 µM,0.0838 µM,0.0791 µM,0.368 µM,,,
CN(C)C(=S)/N=c1\ss/c(=N\C(=S)N(C)C)n1-c1ccc(Cl)cc1,> 100 µM,> 100 µM,> 100 µM,> 100 µM,,> 100 µM,> 100 µM,> 100 µM,> 100 µM,,,,,,,
O=C(Nc1ccc2[nH]c(C(=O)N3CC(CCl)c4c3cc([N+](=O)[O-])c3ccccc43)cc2c1)c1cc2ccccc2o1 (configuration not stated),,> 1100 µM,> 1100 µM,> 1100 µM,> 1100 µM,> 1100 µM,> 1100 µM,> 1100 µM,> 1100 µM,> 1100 µM,> 1100 µM,> 1100 µM,> 1100 µM,> 1100 µM,> 1100 µM,180 µM
O=C1[C@H]2ON(c3ccccc3)C(c3ccccc3F)[C@H]2C(=O)N1c1ccc(Cc2ccc(N3C(=O)[C@@H]4ON(c5ccccc5)C(c5ccccc5F)[C@@H]4C3=O)cc2)cc1 (some centres not stated),> 100 µM,> 100 µM,> 100 µM,> 100 µM,> 100 µM,> 100 µM,> 100 µM,> 100 µM,> 100 µM,,,,,,,
Cc1ccc(C(=O)N2c3ccccc3N(C)n3cccc3C2CC(=O)O)cc1 (configuration not stated),> 100 µM,> 100 µM,> 100 µM,> 100 µM,> 100 µM,> 100 µM,> 100 µM,> 100 µM,> 100 µM,,,,,,,
CCOc1ccccc1N1C(=O)C(=O)C(c2nc3ccccc3o2)/C(=N\N)C1=O (configuration not stated),> 100 µM,> 100 µM,> 100 µM,> 100 µM,> 100 µM,,> 100 µM,> 100 µM,> 100 µM,,,,,,,
COc1ccc(OC)c(NCC#N)c1,> 100 µM,,> 100 µM,> 100 µM,> 100 µM,> 100 µM,> 100 µM,> 100 µM,> 100 µM,,,,,,,
COC1=C2C[C@H](O)C(C)C[C@@]2(OC)OC1=O (some centres not stated),,> 100 µM,> 100 µM,> 100 µM,> 100 µM,> 100 µM,> 100 µM,> 100 µM,> 100 µM,,,,,,,
O=c1nc(NC(c2ccccc2)(c2ccccc2)c2ccccc2)ccn1CCO,> 100 µM,,> 100 µM,> 100 µM,> 100 µM,> 100 µM,> 100 µM,> 100 µM,> 100 µM,,,,,,,
COC(=O)c1ccc(NC(=O)c2cc(OC)c(OC)c(OC)c2)cc1,> 100 µM,,> 100 µM,7.77 µM,> 100 µM,> 100 µM,,77.2 µM,> 100 µM,,,,,,,
